Test results published in ChEMBL document CHEMBL1817596, “Synthesis of a hypoxia-targeted conjugate of the cardioprotective agent 3',4'-dihydroxyflavonol and evaluation of its ability to reduce ischaemia/reperfusion injury” (Bioorg Med Chem Lett, 2011).
The source made the active and inactive calls. No cut-off for these calls is given here.

Tests used:
[1] = Drug uptake in rat Con8 cells assessed as compound level in supernatant under normoxic condition at 10^-5 M after 3 hrs by HPLC analysis; type: ADME, cell-based; conditions: con8, 3 h, 10 µM
[2] = Drug uptake in rat Con8 cells assessed as compound level in supernatant under hypoxic condition at 10^-5 M after 3 hrs by HPLC analysis; type: ADME, cell-based; conditions: con8, 3 h, 10 µM
[3] = Drug uptake in rat Con8 cells assessed as compound level in cell lysate under normoxic condition at 10^-5 M after 3 hrs by HPLC analysis; type: ADME, cell-based; conditions: con8, 3 h, 10 µM
[4] = Drug uptake in rat Con8 cells assessed as compound level in cell lysate under hypoxic condition at 10^-5 M after 3 hrs by HPLC analysis; type: ADME, cell-based; conditions: con8, 3 h, 10 µM
[5] = test system: Aorta; test: Vasorelaxant activity in Sprague-Dawley rat thoracic aortic rings assessed as inhibition of phenylephrine-induced contraction at 10^-5 M after 20 mins; type: functional, tissue-based
[6] = test system: Aorta; test: Vasorelaxant activity in phenylephrine and KPSS-precontracted Sprague-Dawley rat thoracic aortic rings at 10^-10 to 10^-4 M measured after 20 mins; type: functional, tissue-based
[7] = test system: Aorta; test: Antioxidant activity in Sprague-Dawley rat thoracic aortic rings assessed as inhibition of NADPH-activated superoxide formation at 10^-6 to 10^-4 M by lucigenin-enhanced chemiluminescence assay; type: functional, tissue-based
[8] = test system: Aorta; test: Inhibition of acetylcholine-induced relaxation Sprague-Dawley rat thoracic aortic rings at 10^-5 M after 20 mins in presence of superoxide generator pyrogallol; type: functional; set-up: scale not given: the % may be the effect or the level left
[9] = test system: Rattus norvegicus; test: Cardioprotection activity in ischemia/reperfusion-induced Sprague-Dawley rat hindquarters assessed as reduction in circulating LDH level at 8.6 mg/kg, bolus dose administered 5 mins prior to reperfusion measured 30 mins to 3 hrs after reperfusion by UV-VIS spectrophotometry; type: functional, organism-based; set-up: dose 8.6 mg/kg
[10] = test system: Rattus norvegicus; test: Cardioprotection activity in ischemia/reperfusion-induced in Sprague-Dawley rat hindquarters assessed as reduction in MPO level at 8.6 mg/kg, bolus dose administered 5 mins prior to reperfusion by spectrophotometry relative to control; type: functional, organism-based; set-up: dose 8.6 mg/kg
[11] = test system: Rattus norvegicus; test: Cardioprotection activity in ischemia/reperfusion-induced Sprague-Dawley rat hindquarters assessed as reduction in circulating LDH level at 5 mg/kg, bolus dose administered 5 mins prior to reperfusion measured 2 hrs after reperfusion by UV-VIS spectrophotometry; type: functional, organism-based; set-up: dose 5 mg/kg
[12] = test system: Rattus norvegicus; test: Cardioprotection activity in ischemia/reperfusion-induced in Sprague-Dawley rat hindquarters assessed as reduction in MPO level at 5 mg/kg, bolus dose administered 5 mins prior to reperfusion by spectrophotometric analysis relative to control; type: functional, organism-based; set-up: dose 5 mg/kg
[13] = test system: Rattus norvegicus; test: Cardioprotection activity in ischemia/reperfusion-induced Sprague-Dawley rat hindquarters assessed as reduction in circulating LDH level at 5 mg/kg, bolus dose administered 5 mins prior to reperfusion measured 3 hrs after reperfusion by UV-VIS spectrophotometry; type: functional, organism-based; set-up: dose 5 mg/kg

SMILES	Drug uptake [1]	Drug uptake [2]	Drug uptake [3]	Drug uptake [4]	Activity [5]	Activity [6]	Activity [7]	Activity [8] [%]	Activity [9]	Activity [10]	EC50 [6] [µM]	Activity [11]	Activity [12]	Activity [13]
O=c1c(O)c(-c2ccc(O)c(O)c2)oc2ccc(-n3cc(Cn4ccnc4[N+](=O)[O-])nn3)cc12	Active	Active	Active	Active	inactive	inactive	Active	50	Active	Active	–	–	–	–
O=c1c(O)c(-c2ccc(O)c(O)c2)oc2ccccc12	Active	Active	Active	Active	Active	–	–	–	–	–	4.68	Active	inactive	Active
